{"source": "patent US20170052170A1", "about": "“NOVEL CELL LINES AND METHODS” (priority 2009, published 2017)", "biological_target": "T1, sweet taste receptor (endogenously expressed T1R2/T1R3) (Homo sapiens, UniProt Q7RTX0+Q8TE23)", "T1 construct": "endogenous in cells; host or cells: HuTu (ATCC HTB-40), H716 (ATCC CCL-251), HEK 293T (ATCC CRL-11268); some with prior UV treatment", "T1 sequence (Q8TE23 20-839)": "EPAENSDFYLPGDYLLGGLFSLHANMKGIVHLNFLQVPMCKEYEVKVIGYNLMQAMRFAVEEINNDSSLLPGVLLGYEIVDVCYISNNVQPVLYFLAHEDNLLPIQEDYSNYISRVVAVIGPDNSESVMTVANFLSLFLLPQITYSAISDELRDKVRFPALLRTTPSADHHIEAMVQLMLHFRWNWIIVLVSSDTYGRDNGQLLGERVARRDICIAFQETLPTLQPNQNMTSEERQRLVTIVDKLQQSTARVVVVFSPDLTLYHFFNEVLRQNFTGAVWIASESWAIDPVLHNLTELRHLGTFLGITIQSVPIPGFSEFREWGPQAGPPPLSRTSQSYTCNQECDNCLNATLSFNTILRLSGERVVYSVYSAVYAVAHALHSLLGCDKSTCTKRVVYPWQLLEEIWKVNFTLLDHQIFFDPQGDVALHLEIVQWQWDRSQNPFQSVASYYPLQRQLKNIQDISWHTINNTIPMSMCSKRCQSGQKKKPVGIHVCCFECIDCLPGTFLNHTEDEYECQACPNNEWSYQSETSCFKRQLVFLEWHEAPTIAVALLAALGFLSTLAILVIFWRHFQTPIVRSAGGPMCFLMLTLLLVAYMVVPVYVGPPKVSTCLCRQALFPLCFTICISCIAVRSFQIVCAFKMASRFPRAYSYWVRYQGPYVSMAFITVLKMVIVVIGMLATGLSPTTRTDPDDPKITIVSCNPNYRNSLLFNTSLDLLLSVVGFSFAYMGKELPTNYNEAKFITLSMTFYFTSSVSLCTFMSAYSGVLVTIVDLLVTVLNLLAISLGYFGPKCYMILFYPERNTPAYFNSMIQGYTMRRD", "T1 sequence (Q7RTX0 21-852)": "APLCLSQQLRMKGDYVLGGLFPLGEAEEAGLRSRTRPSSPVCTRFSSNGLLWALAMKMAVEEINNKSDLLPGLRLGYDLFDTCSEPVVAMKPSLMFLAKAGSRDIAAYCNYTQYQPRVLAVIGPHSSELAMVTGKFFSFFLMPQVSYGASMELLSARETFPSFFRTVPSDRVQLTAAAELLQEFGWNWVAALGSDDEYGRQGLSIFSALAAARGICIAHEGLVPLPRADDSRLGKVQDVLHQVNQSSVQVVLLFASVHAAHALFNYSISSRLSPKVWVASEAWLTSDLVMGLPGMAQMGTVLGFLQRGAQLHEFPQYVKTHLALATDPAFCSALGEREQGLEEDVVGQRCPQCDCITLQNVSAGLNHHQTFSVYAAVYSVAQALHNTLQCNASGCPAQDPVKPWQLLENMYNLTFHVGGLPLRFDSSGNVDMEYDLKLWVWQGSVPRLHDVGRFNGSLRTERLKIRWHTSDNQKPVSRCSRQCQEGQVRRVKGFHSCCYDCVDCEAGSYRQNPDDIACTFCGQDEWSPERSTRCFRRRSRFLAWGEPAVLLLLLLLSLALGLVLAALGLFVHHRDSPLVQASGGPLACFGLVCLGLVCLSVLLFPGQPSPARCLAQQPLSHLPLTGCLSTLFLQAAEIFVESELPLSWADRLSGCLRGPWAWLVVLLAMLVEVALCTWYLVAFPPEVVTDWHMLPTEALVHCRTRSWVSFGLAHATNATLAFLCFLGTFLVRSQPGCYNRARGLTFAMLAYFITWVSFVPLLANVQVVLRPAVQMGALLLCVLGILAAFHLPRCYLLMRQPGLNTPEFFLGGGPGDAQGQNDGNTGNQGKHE", "test": "calcium flux response to fructose of cells cultured from individual isolated HuTu, H716 and 293T cells", "format": "cell-based", "details": "fructose final concentration 15 mM, control response subtracted", "procedure": "FIGS. 28 A-C depict representative traces of the functional cell-based response of cells of the invention to the addition of fructose (to a final concentration of 15 mM) compared to background. Cells cultured from individual isolated cells were tested (black traces) compared to control cells (gray traces). […] The cell-based assay was designed to report calcium flux using a fluorescent calcium signaling dye. Fluorescent assay response is plotted along the Y-axis and time is indicated along the X-axis. Arrows indicate the timepoint at which fructose was added. FIG. 28A depicts traces from cells cultured from an individual HuTu cell compared to control. FIG. 28B depicts traces from cells cultured from an individual H716 cell compared to control. FIG. 28C depicts traces from cells cultured from an individual 293T cell compared to control.\nIn a specific aspect, provided herein is a method for isolating a cell that endogenously expresses a sweet taste receptor T1R2 subunit and/or sweet taste receptor T1R3 subunit, wherein the method comprises the steps of: • a) providing a population of cells; • b) introducing into the cells a signaling probe or molecular beacon that detects expression of T1R2 and/or introducing into the cells a molecular beacon that detects expression of T1R3; and • c) isolating cells that express a sweet taste receptor T1R2 subunit and/or sweet taste receptor T1R3 subunit. […]", "data": [{"molecule": "O=C(CO)[C@@H](O)[C@H](O)[C@H](O)CO", "note": "[fructose]", "values": [{"measurement": "functional cell-based (calcium flux) response compared to control cells", "value": "higher response"}]}]}
